Assay results reported in ChEMBL document CHEMBL1909046, “DrugMatrix in vitro pharmacology data”.

Tested on: not listed separately
Experiment: DRUGMATRIX: Calcium Channel Type L, Dihydropyridine radioligand binding (ligand: [3H] Nitrendipine)
Format: cell membranes, Rattus norvegicus, Wistar, Cerebral cortex, Membrane
Conditions: Not Active = under 50% inhibition at 10 µM

Structure (SMILES)	IC50	Ki
NCCCNCCSP(=O)(O)O [AMIFOSTINE]	Not Active	Not Active
CN(C)CCC=C1c2ccccc2CCc2ccccc21 [AMITRIPTYLINE]	Not Active	Not Active
CC(=O)Oc1ccccc1C(=O)O [ASPIRIN]	Not Active	Not Active
CC(C)c1c(C(=O)Nc2ccccc2)c(-c2ccccc2)c(-c2ccc(F)cc2)n1CC[C@@H](O)C[C@@H](O)CC(=O)O [ATORVASTATIN]	Not Active	Not Active
CC(=O)OC[C@H]1O[C@@H](n2ncc(=O)[nH]c2=O)[C@H](OC(C)=O)[C@@H]1OC(C)=O [AZARIBINE]	Not Active	Not Active

Target: Sigma non-opioid intracellular receptor 1 (Homo sapiens, UniProt Q99720)
Sequence (Q99720 whole entry): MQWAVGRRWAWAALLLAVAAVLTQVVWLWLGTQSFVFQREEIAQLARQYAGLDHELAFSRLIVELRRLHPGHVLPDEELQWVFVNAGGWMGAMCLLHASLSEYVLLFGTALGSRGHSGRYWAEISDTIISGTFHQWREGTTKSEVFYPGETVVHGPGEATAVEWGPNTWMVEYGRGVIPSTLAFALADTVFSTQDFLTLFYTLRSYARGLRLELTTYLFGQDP
Experiment: DRUGMATRIX: Sigma1 radioligand binding (ligand: [3H] Haloperidol)
Format: cell membranes, Jurkat, Membrane
Conditions: Not Active = under 50% inhibition at 10 µM; read-out: IC50

Structure (SMILES)	IC50
CN(C)CCC=C1c2ccccc2CCc2ccccc21 [AMITRIPTYLINE]	1030 nM

Same assay, conditions: Not Active = under 50% inhibition at 10 µM; read-out: Ki

Structure (SMILES)	Ki
CN(C)CCC=C1c2ccccc2CCc2ccccc21 [AMITRIPTYLINE]	433 nM

Same assay, conditions: jurkat; Not Active = under 50% inhibition at 10 µM

Structure (SMILES)	IC50
NCCCNCCSP(=O)(O)O [AMIFOSTINE]	Not Active
CC(=O)Oc1ccccc1C(=O)O [ASPIRIN]	Not Active
CC(C)c1c(C(=O)Nc2ccccc2)c(-c2ccccc2)c(-c2ccc(F)cc2)n1CC[C@@H](O)C[C@@H](O)CC(=O)O [ATORVASTATIN]	Not Active
CC(=O)OC[C@H]1O[C@@H](n2ncc(=O)[nH]c2=O)[C@H](OC(C)=O)[C@@H]1OC(C)=O [AZARIBINE]	Not Active

Target: C-C chemokine receptor type 5 (Homo sapiens, UniProt P51681); further: in other assays of this panel Not Active means under 50% inhibition at 10 µM
Sequence (P51681 whole entry): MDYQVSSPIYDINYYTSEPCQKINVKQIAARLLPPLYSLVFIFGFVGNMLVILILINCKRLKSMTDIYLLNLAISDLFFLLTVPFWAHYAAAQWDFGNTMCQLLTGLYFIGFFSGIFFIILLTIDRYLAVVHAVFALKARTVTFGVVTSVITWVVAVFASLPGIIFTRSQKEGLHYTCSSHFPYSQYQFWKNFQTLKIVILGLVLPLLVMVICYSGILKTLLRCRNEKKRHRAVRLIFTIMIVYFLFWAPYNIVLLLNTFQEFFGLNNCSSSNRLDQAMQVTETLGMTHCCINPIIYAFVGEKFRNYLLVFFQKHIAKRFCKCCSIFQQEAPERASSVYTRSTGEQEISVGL
Format: cell membranes, Membrane
Conditions: hek293

Structure (SMILES)	IC50
NCCCNCCSP(=O)(O)O [AMIFOSTINE]	Not Active
CN(C)CCC=C1c2ccccc2CCc2ccccc21 [AMITRIPTYLINE]	Not Active
CC(=O)Oc1ccccc1C(=O)O [ASPIRIN]	Not Active
CC(C)c1c(C(=O)Nc2ccccc2)c(-c2ccccc2)c(-c2ccc(F)cc2)n1CC[C@@H](O)C[C@@H](O)CC(=O)O [ATORVASTATIN]	Not Active
CC(=O)OC[C@H]1O[C@@H](n2ncc(=O)[nH]c2=O)[C@H](OC(C)=O)[C@@H]1OC(C)=O [AZARIBINE]	Not Active

Target: T1, C-X-C chemokine receptor type 2 (Homo sapiens, UniProt P25025); further: in other assays of this panel Not Active means under 50% inhibition at 10 µM
T1 sequence (P25025 whole entry): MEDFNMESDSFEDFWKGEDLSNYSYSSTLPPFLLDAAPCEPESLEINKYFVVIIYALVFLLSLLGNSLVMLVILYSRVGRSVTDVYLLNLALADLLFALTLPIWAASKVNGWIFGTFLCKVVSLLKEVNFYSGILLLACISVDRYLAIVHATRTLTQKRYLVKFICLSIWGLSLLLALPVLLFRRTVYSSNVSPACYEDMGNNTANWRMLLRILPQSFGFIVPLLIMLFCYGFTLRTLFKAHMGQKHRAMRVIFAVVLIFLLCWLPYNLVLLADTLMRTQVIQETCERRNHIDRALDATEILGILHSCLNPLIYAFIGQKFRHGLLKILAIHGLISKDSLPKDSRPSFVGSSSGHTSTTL
Format: cell membranes, Membrane
Conditions: cho-k1

Structure (SMILES)	IC50
NCCCNCCSP(=O)(O)O [AMIFOSTINE]	Not Active
CN(C)CCC=C1c2ccccc2CCc2ccccc21 [AMITRIPTYLINE]	Not Active
CC(=O)Oc1ccccc1C(=O)O [ASPIRIN]	Not Active
CC(C)c1c(C(=O)Nc2ccccc2)c(-c2ccccc2)c(-c2ccc(F)cc2)n1CC[C@@H](O)C[C@@H](O)CC(=O)O [ATORVASTATIN]	Not Active
CC(=O)OC[C@H]1O[C@@H](n2ncc(=O)[nH]c2=O)[C@H](OC(C)=O)[C@@H]1OC(C)=O [AZARIBINE]	Not Active

Target: T2, Neuropeptide Y receptor type 2 (Homo sapiens, UniProt P49146); further: in other assays of this panel Not Active means under 50% inhibition at 10 µM
T2 sequence (P49146 whole entry): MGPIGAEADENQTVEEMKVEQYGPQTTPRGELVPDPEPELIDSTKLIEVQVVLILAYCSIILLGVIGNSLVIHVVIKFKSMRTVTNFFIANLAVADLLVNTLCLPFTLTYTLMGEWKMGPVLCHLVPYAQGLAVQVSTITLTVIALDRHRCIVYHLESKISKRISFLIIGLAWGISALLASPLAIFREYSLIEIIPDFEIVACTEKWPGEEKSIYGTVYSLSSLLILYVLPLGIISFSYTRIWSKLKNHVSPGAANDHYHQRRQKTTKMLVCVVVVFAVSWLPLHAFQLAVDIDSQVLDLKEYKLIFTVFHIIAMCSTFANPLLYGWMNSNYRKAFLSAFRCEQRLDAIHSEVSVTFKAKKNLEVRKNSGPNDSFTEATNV
Format: cell membranes, Membrane
Conditions: kan-ts

Structure (SMILES)	IC50
NCCCNCCSP(=O)(O)O [AMIFOSTINE]	Not Active
CN(C)CCC=C1c2ccccc2CCc2ccccc21 [AMITRIPTYLINE]	Not Active
CC(=O)Oc1ccccc1C(=O)O [ASPIRIN]	Not Active
CC(C)c1c(C(=O)Nc2ccccc2)c(-c2ccccc2)c(-c2ccc(F)cc2)n1CC[C@@H](O)C[C@@H](O)CC(=O)O [ATORVASTATIN]	Not Active
CC(=O)OC[C@H]1O[C@@H](n2ncc(=O)[nH]c2=O)[C@H](OC(C)=O)[C@@H]1OC(C)=O [AZARIBINE]	Not Active

Target: T3, Nitric oxide synthase, inducible (Mus musculus, UniProt P29477);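 further: inhibition of iNOS enzyme activity measured with L-arginine as substrate; in other assays of this panel Not Active means under 50% inhibition at 10 µM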
T3 sequence (P29477 whole entry): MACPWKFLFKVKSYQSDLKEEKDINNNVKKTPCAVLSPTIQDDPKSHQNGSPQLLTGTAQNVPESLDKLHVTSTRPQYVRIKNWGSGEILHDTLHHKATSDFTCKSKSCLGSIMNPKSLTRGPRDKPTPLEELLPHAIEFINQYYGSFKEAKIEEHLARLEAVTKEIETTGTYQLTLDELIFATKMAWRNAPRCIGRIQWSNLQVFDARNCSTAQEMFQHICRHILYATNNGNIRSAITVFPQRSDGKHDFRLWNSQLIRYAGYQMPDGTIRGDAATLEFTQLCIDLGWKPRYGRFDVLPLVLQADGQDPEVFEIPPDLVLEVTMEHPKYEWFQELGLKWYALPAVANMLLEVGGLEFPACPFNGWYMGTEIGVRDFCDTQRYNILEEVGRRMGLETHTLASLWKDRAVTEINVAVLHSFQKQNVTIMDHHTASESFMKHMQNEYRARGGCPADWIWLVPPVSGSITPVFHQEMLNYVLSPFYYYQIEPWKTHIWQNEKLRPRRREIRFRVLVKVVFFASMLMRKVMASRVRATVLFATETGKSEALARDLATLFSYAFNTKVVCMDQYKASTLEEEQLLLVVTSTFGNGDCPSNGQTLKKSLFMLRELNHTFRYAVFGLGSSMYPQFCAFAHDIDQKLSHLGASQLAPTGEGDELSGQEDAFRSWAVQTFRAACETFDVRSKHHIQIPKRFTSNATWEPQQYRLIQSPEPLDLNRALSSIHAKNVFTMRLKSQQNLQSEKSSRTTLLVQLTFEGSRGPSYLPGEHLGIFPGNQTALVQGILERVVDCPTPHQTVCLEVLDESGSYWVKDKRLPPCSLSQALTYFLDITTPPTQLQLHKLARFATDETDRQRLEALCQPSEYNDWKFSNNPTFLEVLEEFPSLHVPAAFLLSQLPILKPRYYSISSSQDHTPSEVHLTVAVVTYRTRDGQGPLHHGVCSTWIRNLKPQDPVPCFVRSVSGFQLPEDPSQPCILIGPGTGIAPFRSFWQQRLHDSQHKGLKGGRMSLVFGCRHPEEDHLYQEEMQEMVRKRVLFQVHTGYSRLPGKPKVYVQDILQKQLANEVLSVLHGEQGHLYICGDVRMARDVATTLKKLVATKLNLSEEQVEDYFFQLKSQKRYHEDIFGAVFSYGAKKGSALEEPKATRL
Set-up: species or system Escherichia coli
Conditions: not given

Structure (SMILES)	IC50
NCCCNCCSP(=O)(O)O [AMIFOSTINE]	Not Active
CN(C)CCC=C1c2ccccc2CCc2ccccc21 [AMITRIPTYLINE]	Not Active
CC(=O)Oc1ccccc1C(=O)O [ASPIRIN]	Not Active
CC(C)c1c(C(=O)Nc2ccccc2)c(-c2ccccc2)c(-c2ccc(F)cc2)n1CC[C@@H](O)C[C@@H](O)CC(=O)O [ATORVASTATIN]	Not Active
CC(=O)OC[C@H]1O[C@@H](n2ncc(=O)[nH]c2=O)[C@H](OC(C)=O)[C@@H]1OC(C)=O [AZARIBINE]	Not Active

Target: T4, Neutrophil elastase (Homo sapiens, UniProt P08246)
T4 sequence (P08246 whole entry): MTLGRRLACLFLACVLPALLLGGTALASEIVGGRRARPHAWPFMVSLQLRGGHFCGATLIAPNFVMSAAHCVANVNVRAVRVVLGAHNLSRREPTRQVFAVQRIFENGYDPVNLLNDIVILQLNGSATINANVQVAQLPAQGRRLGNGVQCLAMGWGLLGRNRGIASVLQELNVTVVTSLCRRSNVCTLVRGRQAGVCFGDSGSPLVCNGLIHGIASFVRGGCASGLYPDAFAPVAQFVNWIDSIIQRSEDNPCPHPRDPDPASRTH
Format: tissue-based
Conditions: not given

Structure (SMILES)	IC50
NCCCNCCSP(=O)(O)O [AMIFOSTINE]	Not Active
CN(C)CCC=C1c2ccccc2CCc2ccccc21 [AMITRIPTYLINE]	Not Active
CC(=O)Oc1ccccc1C(=O)O [ASPIRIN]	Not Active
CC(C)c1c(C(=O)Nc2ccccc2)c(-c2ccccc2)c(-c2ccc(F)cc2)n1CC[C@@H](O)C[C@@H](O)CC(=O)O [ATORVASTATIN]	Not Active
CC(=O)OC[C@H]1O[C@@H](n2ncc(=O)[nH]c2=O)[C@H](OC(C)=O)[C@@H]1OC(C)=O [AZARIBINE]	Not Active
